The values that follow come from US20070099982A1, “Use of chp as an inhibitor of glutathione s-transferases and collagen IV” (priority 2003, published 2007).

Assay [1] concerns collagen IV. The note with it: mean of 12 healthy subjects, 4×2 g CHP per day over 14 days. The source says:
CHP was repeatedly administered over 14 days, using 4×2 g of CHP per day.

The subject of assay [2] is α-glutathione S transferase. To be noted: mean of 12 healthy subjects, 4×2.0 g CHP/day over 14 days.

Where two headings read alike, the source gives them in different places.

`O=C(O)[C@@H]1C[C@@H](O)CN1` (relative stereo) [CHP, cis-hydroxy-L-proline]: the “Concentration of collagen IV in serum, MEAN” value in assay [1] (day 0) is listed as 115.39; in assay [1] (day 7), 93.03; in assay [1] (day 13) it was 99.79; in assay [1] (day 13.25) it was 92.87; in assay [1] (day 14), 97.77; in assay [1] (day 17), 93.45. Further, the “Concentration of α-glutathione S transferase in serum, MEAN” value was 0.46 in assay [2] (day 0); 0.37 in assay [2] (day 7); 0.26 in assay [2] (day 13); 0.20 in assay [2] (day 13.25); 0.21 in assay [2] (day 14); 0.18 in assay [2] (day 17).
